Data reported in ChEMBL document CHEMBL1201862, “PubChem BioAssay data set” (2004).
Values belong to the molecule of their own block, whether it stands above or below them. Active and inactive are the calls of the source.

Columns and labels:
[1] = HEp-2 cell cytotoxicity, dose response, cytotoxicity control for RSV inhibitor project, HTS (AID 2410); assay type: functional; settings: human respiratory syncytial virus
[2] = target: FAD-linked sulfhydryl oxidase ALR (Homo sapiens, UniProt P55789); experiment: inhibitors of human ALR sulfhydryl oxidase, dose response, biochemical, H2O2 detection, luminescence, cherry-pick (AID 493248)
[3] = target: T1, Corticotropin-releasing factor receptor 2/Corticotropin-releasing factor-binding protein (Homo sapiens, UniProt P24387+Q13324); experiment: Dose Response confirmation of uHTS hits for small molecule antagonists of the CRF-binding protein and CRF-R2 receptor complex.; assay type: functional; settings: read-out: IC50_Mean
T1 sequence (Q13324 whole entry): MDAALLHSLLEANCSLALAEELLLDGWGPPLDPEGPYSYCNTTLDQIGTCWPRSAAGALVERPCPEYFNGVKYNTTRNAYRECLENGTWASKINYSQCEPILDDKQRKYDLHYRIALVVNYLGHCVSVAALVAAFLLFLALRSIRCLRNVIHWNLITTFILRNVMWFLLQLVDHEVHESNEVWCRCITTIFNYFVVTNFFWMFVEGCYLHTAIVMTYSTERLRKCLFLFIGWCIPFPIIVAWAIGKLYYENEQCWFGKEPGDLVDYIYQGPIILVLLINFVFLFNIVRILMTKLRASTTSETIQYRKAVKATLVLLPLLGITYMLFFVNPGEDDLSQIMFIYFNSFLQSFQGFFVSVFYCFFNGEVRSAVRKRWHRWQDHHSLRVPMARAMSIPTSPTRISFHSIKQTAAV
T1 sequence (P24387 whole entry): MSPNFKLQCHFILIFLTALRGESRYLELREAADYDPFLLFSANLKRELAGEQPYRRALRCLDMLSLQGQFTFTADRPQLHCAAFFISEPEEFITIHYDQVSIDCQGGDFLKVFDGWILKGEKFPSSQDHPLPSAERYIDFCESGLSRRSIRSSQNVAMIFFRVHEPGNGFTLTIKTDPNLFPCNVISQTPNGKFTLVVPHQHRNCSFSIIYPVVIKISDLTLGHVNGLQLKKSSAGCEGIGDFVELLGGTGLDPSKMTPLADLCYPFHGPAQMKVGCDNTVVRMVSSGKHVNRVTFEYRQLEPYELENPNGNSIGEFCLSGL

[4] = target: T1, Corticotropin-releasing factor receptor 2/Corticotropin-releasing factor-binding protein; experiment: activators of CRF receptor 2 with binding protein – uHTS hits, confirmation (AID 602473); assay type: functional; settings: read-out: EC50_Mean
[5] = NIH-3T3 fibroblast cytotoxicity, dose response, cytotoxicity control, cell-based, fluorescence, Alamar Blue, secondary assay (AID 2327); assay type: functional;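 also: NIH-3T3 mouse fibroblasts cultured with fluconazole at 8 µg/mL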
[6] = C. albicans growth with fluconazole, confirmation, fluorescence, retest (AID 2467); assay type: functional, cell-based
[7] = inhibitors of HIV Env-driven cell fusion, dose response, cherry-pick (AID 652057); assay type: functional, cell-based
Cytochrome P450 2D6 = Cytochrome P450 2D6 (Homo sapiens, UniProt P10635);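 also: CYP2D6 member of a cytochrome P450 panel assay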
Cytochrome P450 2C9 = Cytochrome P450 2C9 (Homo sapiens, UniProt P11712)
Cytochrome P450 3A4 = Cytochrome P450 3A4 (Homo sapiens, UniProt P08684);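 also: CYP3A4 tested as one member of a cytochrome P450 panel screen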
Cytochrome P450 2C19 = Cytochrome P450 2C19 (Homo sapiens, UniProt P33261); experiment: Cytochrome panel assay with activity outcomes. Panel member name: p450-cyp2c19 Compounds with AC50 equal or less than 10 uM are considered active; assay type: functional; settings: read-out: AC50
[8] = Shn3 3'UTR reporter inhibitors, dose response, cell-based, Clone20 osteoblasts, firefly luciferase, cherry-picked (AID 624132); assay type: functional;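 also: firefly luciferase luminescence from reporter carrying the Shn3 3'UTR in osteoblasts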
[9] = control 3'UTR Renilla luciferase suppression, dose response, counter-screen for Shn3 inhibitor project, cell-based, Clone20-Shn3RL, cherry-picked (AID 624133); assay type: functional

Chain of FAD-linked sulfhydryl oxidase ALR (P55789 whole entry): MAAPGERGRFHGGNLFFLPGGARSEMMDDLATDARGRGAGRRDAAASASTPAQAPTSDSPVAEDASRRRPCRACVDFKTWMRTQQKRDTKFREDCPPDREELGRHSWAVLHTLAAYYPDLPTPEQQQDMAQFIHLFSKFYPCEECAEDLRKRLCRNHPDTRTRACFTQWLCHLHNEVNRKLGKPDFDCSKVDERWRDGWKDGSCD
Chain of Cytochrome P450 2D6 (P10635 whole entry): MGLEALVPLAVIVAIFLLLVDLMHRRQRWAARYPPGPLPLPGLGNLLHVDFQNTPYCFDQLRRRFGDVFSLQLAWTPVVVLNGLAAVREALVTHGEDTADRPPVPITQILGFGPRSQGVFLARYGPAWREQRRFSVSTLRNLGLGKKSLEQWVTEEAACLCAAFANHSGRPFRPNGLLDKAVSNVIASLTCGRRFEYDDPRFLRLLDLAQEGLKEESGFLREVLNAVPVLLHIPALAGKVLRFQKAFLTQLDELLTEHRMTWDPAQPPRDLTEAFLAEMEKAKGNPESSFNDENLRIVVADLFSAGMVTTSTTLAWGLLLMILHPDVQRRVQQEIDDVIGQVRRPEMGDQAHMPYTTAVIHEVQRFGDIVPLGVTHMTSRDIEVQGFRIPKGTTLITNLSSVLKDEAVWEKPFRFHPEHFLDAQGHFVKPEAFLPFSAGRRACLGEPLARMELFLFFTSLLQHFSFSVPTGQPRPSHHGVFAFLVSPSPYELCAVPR
Chain of Cytochrome P450 3A4 (P08684 whole entry): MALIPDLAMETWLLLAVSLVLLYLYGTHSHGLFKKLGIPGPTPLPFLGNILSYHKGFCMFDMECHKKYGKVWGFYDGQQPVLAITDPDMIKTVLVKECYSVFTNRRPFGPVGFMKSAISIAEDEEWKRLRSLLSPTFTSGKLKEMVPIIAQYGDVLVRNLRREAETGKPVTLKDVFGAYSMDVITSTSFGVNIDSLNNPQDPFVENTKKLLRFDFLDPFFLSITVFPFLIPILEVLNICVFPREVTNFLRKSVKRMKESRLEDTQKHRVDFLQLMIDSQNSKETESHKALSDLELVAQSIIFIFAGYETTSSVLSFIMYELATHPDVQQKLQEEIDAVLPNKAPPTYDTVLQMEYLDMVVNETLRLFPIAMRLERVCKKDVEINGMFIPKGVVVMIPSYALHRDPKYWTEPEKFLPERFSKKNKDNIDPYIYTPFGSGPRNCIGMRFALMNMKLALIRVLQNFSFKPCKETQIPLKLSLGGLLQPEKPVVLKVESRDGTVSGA
Chain of Cytochrome P450 2C9 (P11712 whole entry): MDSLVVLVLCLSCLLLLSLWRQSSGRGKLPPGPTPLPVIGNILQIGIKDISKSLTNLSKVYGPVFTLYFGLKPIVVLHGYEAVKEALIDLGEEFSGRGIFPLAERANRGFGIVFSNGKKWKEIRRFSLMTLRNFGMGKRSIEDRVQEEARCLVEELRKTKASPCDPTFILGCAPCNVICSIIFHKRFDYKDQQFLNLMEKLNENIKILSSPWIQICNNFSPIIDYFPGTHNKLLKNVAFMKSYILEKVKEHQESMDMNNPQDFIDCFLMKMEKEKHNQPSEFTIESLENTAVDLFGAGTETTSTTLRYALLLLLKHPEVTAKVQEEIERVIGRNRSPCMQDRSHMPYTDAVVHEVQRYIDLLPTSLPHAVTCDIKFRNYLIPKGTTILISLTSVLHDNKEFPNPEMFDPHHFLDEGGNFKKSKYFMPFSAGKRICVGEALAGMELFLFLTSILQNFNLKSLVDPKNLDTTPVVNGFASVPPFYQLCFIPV
Chain of Cytochrome P450 2C19 (P33261 whole entry): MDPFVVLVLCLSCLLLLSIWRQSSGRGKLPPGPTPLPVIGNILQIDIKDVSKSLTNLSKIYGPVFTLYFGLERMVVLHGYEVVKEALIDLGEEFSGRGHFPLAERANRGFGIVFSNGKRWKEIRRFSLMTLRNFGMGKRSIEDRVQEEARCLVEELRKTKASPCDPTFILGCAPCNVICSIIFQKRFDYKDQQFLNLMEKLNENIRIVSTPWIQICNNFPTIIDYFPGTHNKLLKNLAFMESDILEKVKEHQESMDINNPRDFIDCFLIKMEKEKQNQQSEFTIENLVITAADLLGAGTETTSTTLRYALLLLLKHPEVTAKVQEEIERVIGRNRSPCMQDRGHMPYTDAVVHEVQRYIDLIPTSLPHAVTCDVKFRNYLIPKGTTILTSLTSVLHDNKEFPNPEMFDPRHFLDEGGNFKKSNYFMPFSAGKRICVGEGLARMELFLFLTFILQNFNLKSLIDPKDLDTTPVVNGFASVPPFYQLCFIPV

SMILES: Cc1ccc2nc(N=C(N)NC(=O)N3c4ccccc4Sc4ccccc43)nc(C)c2c1
CC50 [1]: 12.8 µM (active)

AC50 [2]: 4.78 µM (active)
SMILES: Cc1ccc(NC2CCCN(C(=O)C3CCCC3)C2)cc1C (stereo not given)

IC50 [3]: > 47.1 µM (inactive)
EC50 [4]: > 53 µM (inactive)
SMILES: COc1ccc(C(=O)Nc2ccc(C3CC3(Cl)Cl)cc2)cc1 (stereo not given)

SMILES: COc1ccccc1C(=O)Nc1ccc(S(=O)(=O)N2CCCCC2c2cccnc2)cc1 (stereo not given)
CC50 [1]: 31.9 µM (active)

AC50 [2]: 10.8 µM (active)
SMILES: Cc1ccccc1NC(=O)Cc1nc(CCl)cs1

SMILES: CN(Cc1ccccc1)S(=O)(=O)c1ccc(C(=O)Nc2nnc(C3CC3)o2)cc1
EC50 [5]: > 160 µM (inactive)
EC50 [6]: 1.76 µM (active)

SMILES: CC/C(=N\NC(N)=O)c1ccc(OC(F)F)cc1
CC50 [1]: 27.5 µM (active)

SMILES: C[C@H]1CN([C@@H](C)CO)S(=O)(=O)c2ccc(-c3cccc(F)c3)cc2O[C@H]1CN(C)S(=O)(=O)c1ccccc1
AC50 [7]: 25.7 µM (active)

AC50 [2]: 3.46 µM (active)
SMILES: COc1ccc(NCc2nc3ccccc3n2C)cc1

IC50 [3]: > 47.1 µM (inactive)
EC50 [4]: > 53 µM (inactive)
SMILES: O=C(CSc1nc(-c2ccco2)cc(C(F)(F)F)n1)NCCCN1CCOCC1

IC50 [3]: > 47.1 µM (inactive)
EC50 [4]: > 53 µM (inactive)
SMILES: COc1ccc(NC(=O)CN(C)C(=O)c2cccc(S(=O)(=O)N3CCN(c4ccc(F)cc4)CC3)c2)cc1

IC50 [3]: > 47.1 µM (inactive)
EC50 [4]: > 53 µM (inactive)
SMILES: O=C(c1ccccc1)c1nc2ccccc2nc1O

SMILES: C=CCOc1ccc(CN(C)CC(O)COc2cccc3ccccc23)cc1 (stereo not given)
CC50 [1]: 26.1 µM (active)

IC50 [3]: > 47.1 µM (inactive)
EC50 [4]: > 53 µM (inactive)
SMILES: CCOC(=O)c1nnn(-c2nonc2N)c1CN(C)C1CCCCC1

SMILES: Cc1cc(Nc2nc3ccccc3nc2O)n(-c2ccccc2)n1
CC50 [1]: 16.6 µM (active)

AC50 [2]: 1.64 µM (active)
SMILES: Cc1ccc(NC2CCCN(C(=O)c3snnc3C)C2)cc1C (stereo not given)

IC50 [3]: > 47.1 µM (inactive)
EC50 [4]: > 53 µM (inactive)
SMILES: O=C(COC(=O)C1CCN(S(=O)(=O)c2ccc3c(c2)OCCO3)CC1)NC1CCS(=O)(=O)C1 (stereo not given)

IC50 [3]: > 47.1 µM (inactive)
EC50 [4]: > 53 µM (inactive)
SMILES: COc1cccc(NC(=O)C2CCCN(S(=O)(=O)c3ccc(-n4cnnn4)cc3)C2)c1 (stereo not given)

AC50 (Cytochrome P450 2D6): 14.1 µM (inconclusive)
AC50 (Cytochrome P450 2C9): 3.55 µM (inconclusive)
AC50 (Cytochrome P450 3A4): 22.4 µM (inconclusive)
AC50 (Cytochrome P450 2C19): 25.1 µM (inconclusive)
SMILES: Cc1ccccc1C(=O)c1c[nH]c(C(=O)NCc2cccs2)c1

SMILES: CCc1c(C)nc2cc(-c3ccc(OC)c(OC)c3)nn2c1NCC1CC1
AC50 [8]: 5.11 µM (active)
CC50 [1]: 13.7 µM (active)
AC50 [9]: 5.44 µM (active)

IC50 [3]: > 47.1 µM (inactive)
EC50 [4]: > 53 µM (inactive)
SMILES: CC(=O)Nc1ccc(OCC(O)CN2C(C)(C)CC(O)CC2(C)C)cc1 (stereo not given)
